Test results from patent publication US11974983B2 (Duke University, priority 2018, dated 2024).

Key:
[1] = tested on: wild-type ERα and ERα LBD mutants Y537S, Y537N, Y537C, D538G; assay: ERE-luciferase reporter assay in Caov2 and SKBR3 cells (statements on all receptors); type: cell-based
Procedure: ExSite mutagenesis was performed using the corresponding primers as summarized in Table 1 below on a pENTR2B ERα WT construct using Pfu ultra taq polymerase. The primers were PNK phosphorylated. Following PCR amplification, the products were digested with DpnI at 37° C. for 1 hr, followed by overnight ligation at 16° C. Ligated products were transformed into DH5α bacterial cells and grown on kanamycin resistant plates. The pENTR clones were verified by sequencing and then swapped into the pcDNA-DEST vector using the Gateway system (Invitrogen) for expression analysis.
Caov2 ovarian carcinoma cells were grown in RPMI-1640 media (Gibco) supplemented with 8% Fetal Bovine Serum (FBS), Sodium Pyruvate (NaPyr) and non-essential amino acids (NEAA) and passaged every 2-3 days. SKBR3 breast adenocarcinoma cells were grown in DMEM media (Gibco) supplemented with 8% Fetal Bovine Serum (FBS), Sodium Pyruvate (NaPyr) and non-essential amino acids (NEAA) and passaged every 2-3 days. […]
Caov2 cells were co-transfected with the 7X-TK-ERE-TATA luciferase reporter gene (Nagel et al., Endocrinology 142(11): 4721-4728 (2001)) and expression constructs for either wild-type or mutant receptors using Fugene transfection reagent (Promega). […] Following 24 hours of treatment, cells were lysed and the luciferase and β-gal assays were performed as described previously (Norris et al., J Biol Chem 270(39): 22777-22782 (1995)) and the plates were read on the Fusion α-FP HT plate reader (PerkinElmer Life Sciences).
See Jeselsohn et al., Nature Reviews Clinical Oncology 12(10): 573-583 (2015); Jeselsohn et al., Clinical Cancer Research 20(7): 1757-1767 (2014); Robinson et al., Nature Genetics 45(12): 1446-1451(2013); Thomas and Gustafsson, Trends in Endocrinology and Metabolism 26(9): 467-476 (2015); and Toy et al., Nature Genetics 45(12): 1439-1445 (2013). The activity of these mutants was evaluated in a reconstituted estrogen response element (ERE)-luciferase reporter assay in Caov2 ovarian carcinoma cells and SKBR3 breast adenocarcinoma cells. […]

[2] = tested on: MCF7 WT; assay: Mammary intraductal (MIND) xenograft model, MCF7 WT; type: in vivo, NSG mice; details: MCF7 WT mice; fulvestrant 5 mg once per week subcutaneous
Procedure: (§1) MCF7 cells were engineered with CRISPR/Cas9 to express ERα with Y537S and D538G mutations. To mimic the natural environment of infiltrating ductal ERα^+ breast cancers, NSG™ mice were injected, via the nipple in the inguinal mammary glands, with three MCF7 cell variants: wild type MCF7 cells (MCF7 WT), MCF7 cells expressing Y537S mutant ERα (MCF7 Y537S), and MCF7 cells expressing D538G mutant ERα (MCF7 D538G), respectively. Prior to injection, the MCF7 cells were labeled with a luciferase reporter to monitor tumor growth in vivo using a Xenogen IVIS imager. […] FIG. 4 summarizes the experimental design.

[3] = tested on: MCF7 Y537S; assay: Mammary intraductal (MIND) xenograft model, MCF7 Y537S; type: in vivo, NSG mice; details: MCF7 Y537S; fulvestrant 5 mg once per week; after 70 days
Procedure: as §1

[4] = tested on: MCF7 WT; assay: MIND xenograft model, combination therapies, MCF7 WT; type: in vivo, mice
Text: MCF7 WT and MCF7 Y537S MIND xenograft model were generated as described in Example 3. […] FIG. 20 summarizes the experimental design.

Compound	transcriptional activity, response to E2 [1]	tumor growth monitored by total flux [2]	lung metastasis [3]	tumor growth monitored by total flux ([4]; MCF7 WT mice, fulvestrant alone 5 mg/mouse once per week)	tumor growth by tumor volume ([4]; MCF7 WT, day 36 and day 43 of treatment)
C[C@]12CC[C@@H]3c4ccc(O)cc4CC[C@H]3[C@@H]1CC[C@@H]2O [E2, 17-β estradiol]	not responsive to E2 activation	–	–	–	–
C[C@]12CC[C@@H]3c4ccc(O)cc4C[C@@H](CCCCCCCCC[S+]([O-])CCCC(F)(F)C(F)(F)F)[C@H]3[C@@H]1CC[C@@H]2O (some centres unmarked) [fulvestrant]	–	the most effective in inhibiting tumor growth	did not have a significant effect	the most effective in inhibiting tumor growth	the most effective
